Patent US20240383843A1, “MC3-Type Lipids” (NanoVation Therapeutics Inc., priority 2021, published 2024)
≈ marks a conversion by molar mass, not a printed value.

What was measured:
FVII gene = settings: mice, siRNA formulation; Jayaraman et al., 2012; cited from earlier work
[1] = system: 22Rv1 cells modified to stably express luciferase; assay: Luciferase knockdown by siRNA-containing LNPs in 22Rv1 cells stably expressing luciferase; assay type: cell-based; settings: Homo sapiens, siRNA-LNP 50/10/38.5/1.5 mol %, N/P 3, read-out: half maximal effective siRNA concentration (EC50)
Protocol: The LNPs contain 50/10/38.5/1.5 mol % of ionizable lipid/DSPC/chol/PEG-DMG (N/P=3) and the siRNA encodes luciferase.
An siRNA targeted against firefly luciferase purchased from Integrated DNA Technologies (IDT, Coralville, IA) was used to assess ability of LNP to knockdown firefly luciferase in a cell line.
LNP formulations containing the ionizable lipids, nor-MC3 or MC3, DSPC, cholesterol, and PEG-DMG were prepared containing siRNA encoding luciferase as described above. The lipid nanoparticles comprise 50/10/38.5/1.5 mol % of ionizable lipid/DSPC/chol/PEG-DMG and the nitrogen-to-phosphorus ratio (N/P) was 3.

In the case of CCCCC/C=C\C/C=C\CCCCCCCCC1(CCCCCCCC/C=C\C/C=C\CCCCC)OCC(CCN(C)C)O1 (centres unmarked) [KC2], the ED50 for FVII gene silencing (FVII gene) is given as 0.1 mg/kg.
CCCCC/C=C\C/C=C\CCCCCCCC(CCCCCCC/C=C\C/C=C\CCCCC)OC(=O)CCCN(C)C [nor-MC3, (6Z,9Z,26Z,29Z)-Pentatriaconta-6,9,26,29-tetraen-18-yl 4-(dimethylamino)butanoate] showed an EC50 [1] of 0.164 µg/mL (≈ 0.268 µM).
